In PubChem BioAssay (NCI):
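Five compound concentrations were applied to cells in 96-well plates for 48 hours; endpoints were derived by simple linear interpolation of the resulting dose-response curve. Abbreviation: GI50, concentration required for 50% inhibition of growth. TGI: total growth inhibition.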

Experiments:
Assay in all cases: NCI-60 cell line screen, 48 h
786-0 renal = system: 786-0 renal
A498 renal = system: A498 renal
A549 NSCLC = system: A549 NSCLC
ACHN renal = system: ACHN renal
BT-549 breast = system: BT-549 breast
CAKI-1 renal = system: CAKI-1 renal
CCRF-CEM leukemia = system: CCRF-CEM leukemia
COLO 205 colon = system: COLO 205 colon
DU-145 prostate = system: DU-145 prostate
EKVX NSCLC = system: EKVX NSCLC
HCC-2998 colon = system: HCC-2998 colon
HCT-116 colon = system: HCT-116 colon
HCT-15 colon = system: HCT-15 colon
HL-60(TB) leukemia = system: HL-60(TB) leukemia
HOP-62 NSCLC = system: HOP-62 NSCLC
HOP-92 NSCLC = system: HOP-92 NSCLC
HS 578T breast = system: HS 578T breast
HT29 colon = system: HT29 colon
IGROV1 ovarian = system: IGROV1 ovarian
KM12 colon = system: KM12 colon
LOX IMVI melanoma = system: LOX IMVI melanoma
M14 melanoma = system: M14 melanoma
MALME-3M melanoma = system: MALME-3M melanoma
MCF7 breast = system: MCF7 breast
MDA-MB-231 breast = system: MDA-MB-231 breast
MDA-MB-435 = system: MDA-MB-435
MOLT-4 leukemia = system: MOLT-4 leukemia
NCI-H226 lung = system: NCI-H226 lung
NCI-H23 lung = system: NCI-H23 lung

Cc1ccc2cc3c(N)c4c(C)ccc(C)c4nc3nc2c1
GI50 (786-0 renal): 6.72 µM
TGI (786-0 renal): 20.5 µM
GI50 (A498 renal): 11.9 µM
TGI (A498 renal): 25.1 µM
GI50 (A549 NSCLC): 1.85 µM
TGI (A549 NSCLC): 3.44 µM
GI50 (ACHN renal): 2.68 µM
TGI (ACHN renal): 13.2 µM
GI50 (BT-549 breast): 14.8 µM
TGI (BT-549 breast): 29.7 µM
GI50 (CAKI-1 renal): 10.2 µM
TGI (CAKI-1 renal): 22 µM
GI50 (CCRF-CEM leukemia): 4.04 µM
TGI (CCRF-CEM leukemia): 36.8 µM
GI50 (COLO 205 colon): 5.77 µM
TGI (COLO 205 colon): 20 µM
GI50 (DU-145 prostate): 5.82 µM
TGI (DU-145 prostate): 18.6 µM
GI50 (EKVX NSCLC): 8.04 µM
TGI (EKVX NSCLC): 21.4 µM
GI50 (HCC-2998 colon): 4.26 µM
TGI (HCC-2998 colon): 14.8 µM
GI50 (HCT-116 colon): 1.68 µM
TGI (HCT-116 colon): 3.27 µM
GI50 (HCT-15 colon): 1.33 µM
TGI (HCT-15 colon): 10.3 µM
GI50 (HL-60(TB) leukemia): 18.7 µM
TGI (HL-60(TB) leukemia): 40.8 µM
GI50 (HOP-62 NSCLC): 9.79 µM
TGI (HOP-62 NSCLC): 25.5 µM
GI50 (HOP-92 NSCLC): 1.87 µM
TGI (HOP-92 NSCLC): 16.5 µM
GI50 (HS 578T breast): 12.8 µM
TGI (HS 578T breast): 34.5 µM
GI50 (HT29 colon): 2.89 µM
TGI (HT29 colon): 12.9 µM
GI50 (IGROV1 ovarian): 6.73 µM
TGI (IGROV1 ovarian): 22.3 µM
GI50 (KM12 colon): 2.12 µM
TGI (KM12 colon): 16.9 µM
GI50 (LOX IMVI melanoma): 1.65 µM
TGI (LOX IMVI melanoma): 3.4 µM
GI50 (M14 melanoma): 12.4 µM
TGI (M14 melanoma): 26.7 µM
GI50 (MALME-3M melanoma): 17.7 µM
TGI (MALME-3M melanoma): 36.1 µM
GI50 (MCF7 breast): 1.44 µM
TGI (MCF7 breast): 2.98 µM
GI50 (MDA-MB-231 breast): 3.17 µM
TGI (MDA-MB-231 breast): 20.4 µM
GI50 (MDA-MB-435): 10.9 µM
TGI (MDA-MB-435): 23.4 µM
GI50 (MOLT-4 leukemia): 3.49 µM
TGI (MOLT-4 leukemia): 21.7 µM
GI50 (NCI-H226 lung): 13.1 µM
TGI (NCI-H226 lung): 29.5 µM
GI50 (NCI-H23 lung): 11.6 µM
